Experimental data: ChEMBL document CHEMBL5463729, “Data for DCP probe BAY 1753011” (2023)

Columns and labels:
[1] = target: Serine/threonine-protein kinase PAK 6 (Homo sapiens) (UniProt Q9NQU5); test: Inhibition of PAK6(h) at 10.0 µM in the Eurofins Kinase panel; conditions: Compound concentration 10.0 uM
[2] = target: Cyclin-dependent kinase-like 3 (Homo sapiens) (UniProt Q8IVW4); test: Inhibition of CDKL3(h) at 10.0 µM in the Eurofins Kinase panel; conditions: Compound concentration 10.0 uM
[3] = target: G protein-coupled receptor kinase 4 (Homo sapiens) (UniProt P32298); test: Inhibition of GRK4(h) at 10.0 µM in the Eurofins Kinase panel; conditions: Compound concentration 10.0 uM
Chain of G protein-coupled receptor kinase 4 (Homo sapiens) (P32298 whole entry, looked up): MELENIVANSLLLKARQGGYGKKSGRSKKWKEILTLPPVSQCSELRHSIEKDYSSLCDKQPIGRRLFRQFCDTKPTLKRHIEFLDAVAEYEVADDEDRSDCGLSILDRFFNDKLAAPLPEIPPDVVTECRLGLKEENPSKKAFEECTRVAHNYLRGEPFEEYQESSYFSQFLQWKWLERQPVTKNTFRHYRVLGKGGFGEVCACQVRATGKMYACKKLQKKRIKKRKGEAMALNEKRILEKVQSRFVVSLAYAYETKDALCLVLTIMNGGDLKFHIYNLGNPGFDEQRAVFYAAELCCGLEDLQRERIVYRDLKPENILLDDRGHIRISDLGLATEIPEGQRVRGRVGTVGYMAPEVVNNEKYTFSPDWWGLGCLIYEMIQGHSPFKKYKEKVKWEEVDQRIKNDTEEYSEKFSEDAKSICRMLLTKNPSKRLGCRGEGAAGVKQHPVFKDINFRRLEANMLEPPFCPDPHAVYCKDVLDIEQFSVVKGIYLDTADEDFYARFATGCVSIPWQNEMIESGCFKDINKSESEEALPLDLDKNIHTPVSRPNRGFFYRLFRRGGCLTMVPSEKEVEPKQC

[4] = target: Serine/threonine-protein kinase NIM1 (Homo sapiens) (UniProt Q8IY84); test: Inhibition of NIM1(h) at 10.0 µM in the Eurofins Kinase panel; conditions: Compound concentration 10.0 uM
Chain of Serine/threonine-protein kinase NIM1 (Homo sapiens) (Q8IY84 whole entry): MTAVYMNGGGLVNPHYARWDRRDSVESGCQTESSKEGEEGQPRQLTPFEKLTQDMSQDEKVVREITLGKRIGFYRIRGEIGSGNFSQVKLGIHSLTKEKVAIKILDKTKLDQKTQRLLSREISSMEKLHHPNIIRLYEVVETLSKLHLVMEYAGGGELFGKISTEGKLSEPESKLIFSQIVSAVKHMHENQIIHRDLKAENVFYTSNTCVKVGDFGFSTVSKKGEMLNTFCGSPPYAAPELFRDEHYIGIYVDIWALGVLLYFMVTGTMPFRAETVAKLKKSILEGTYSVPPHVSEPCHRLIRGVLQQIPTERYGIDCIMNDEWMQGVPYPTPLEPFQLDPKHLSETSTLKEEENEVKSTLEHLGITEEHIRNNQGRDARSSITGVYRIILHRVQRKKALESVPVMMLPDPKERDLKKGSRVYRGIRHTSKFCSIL

[5] = target: Serine-protein kinase ATM (Homo sapiens) (UniProt Q13315); test: Inhibition of ATM(h) at 10.0 µM in the Eurofins Kinase panel; conditions: Compound concentration 10.0 uM
[6] = target: Testis-specific serine/threonine-protein kinase 2 (Homo sapiens) (UniProt Q96PF2); test: Inhibition of TSSK2(h) at 10.0 µM in the Eurofins Kinase panel; conditions: Compound concentration 10.0 uM
Chain of Testis-specific serine/threonine-protein kinase 2 (Homo sapiens) (Q96PF2 whole entry): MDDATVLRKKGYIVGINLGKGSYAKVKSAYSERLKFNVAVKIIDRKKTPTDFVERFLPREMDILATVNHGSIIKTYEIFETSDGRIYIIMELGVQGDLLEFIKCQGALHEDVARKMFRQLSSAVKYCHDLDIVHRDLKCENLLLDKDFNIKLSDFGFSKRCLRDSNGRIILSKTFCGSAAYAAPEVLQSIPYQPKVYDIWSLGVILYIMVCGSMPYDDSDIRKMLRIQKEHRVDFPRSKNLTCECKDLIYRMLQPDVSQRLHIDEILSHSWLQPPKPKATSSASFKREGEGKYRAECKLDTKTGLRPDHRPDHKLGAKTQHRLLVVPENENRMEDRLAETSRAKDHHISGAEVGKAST

[7] = target: Dual specificity tyrosine-phosphorylation-regulated kinase 1B (Homo sapiens) (UniProt Q9Y463); test: Inhibition of DYRK1B(h) at 10.0 µM in the Eurofins Kinase panel; conditions: Compound concentration 10.0 uM
Chain of Dual specificity tyrosine-phosphorylation-regulated kinase 1B (Homo sapiens) (Q9Y463 whole entry, looked up): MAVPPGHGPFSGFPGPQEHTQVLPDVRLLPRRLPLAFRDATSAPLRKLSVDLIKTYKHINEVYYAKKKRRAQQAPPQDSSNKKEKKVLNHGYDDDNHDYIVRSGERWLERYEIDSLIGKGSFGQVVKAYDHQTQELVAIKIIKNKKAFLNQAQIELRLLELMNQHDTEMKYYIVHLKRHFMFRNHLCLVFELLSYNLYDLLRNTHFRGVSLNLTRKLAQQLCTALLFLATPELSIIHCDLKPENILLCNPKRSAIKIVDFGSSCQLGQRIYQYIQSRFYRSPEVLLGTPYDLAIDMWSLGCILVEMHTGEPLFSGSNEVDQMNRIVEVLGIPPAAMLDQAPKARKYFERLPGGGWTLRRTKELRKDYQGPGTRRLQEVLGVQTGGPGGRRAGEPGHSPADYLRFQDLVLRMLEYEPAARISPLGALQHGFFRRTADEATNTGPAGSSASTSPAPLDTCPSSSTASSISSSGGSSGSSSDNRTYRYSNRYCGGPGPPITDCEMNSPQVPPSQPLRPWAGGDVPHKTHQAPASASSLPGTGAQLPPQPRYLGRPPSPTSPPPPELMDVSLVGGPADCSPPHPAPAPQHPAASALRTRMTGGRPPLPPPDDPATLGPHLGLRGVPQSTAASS

[8] = target: Mitogen-activated protein kinase kinase kinase 10 (Homo sapiens) (UniProt Q02779); test: Inhibition of MLK2(h) at 10.0 µM in the Eurofins Kinase panel; conditions: Compound concentration 10.0 uM
[9] = target: T1, cGMP-dependent protein kinase 1 (Homo sapiens) (UniProt Q13976); test: Inhibition of PKG1alpha(h) at 10.0 µM in the Eurofins Kinase panel; conditions: Compound concentration 10.0 uM
T1 sequence (whole entry): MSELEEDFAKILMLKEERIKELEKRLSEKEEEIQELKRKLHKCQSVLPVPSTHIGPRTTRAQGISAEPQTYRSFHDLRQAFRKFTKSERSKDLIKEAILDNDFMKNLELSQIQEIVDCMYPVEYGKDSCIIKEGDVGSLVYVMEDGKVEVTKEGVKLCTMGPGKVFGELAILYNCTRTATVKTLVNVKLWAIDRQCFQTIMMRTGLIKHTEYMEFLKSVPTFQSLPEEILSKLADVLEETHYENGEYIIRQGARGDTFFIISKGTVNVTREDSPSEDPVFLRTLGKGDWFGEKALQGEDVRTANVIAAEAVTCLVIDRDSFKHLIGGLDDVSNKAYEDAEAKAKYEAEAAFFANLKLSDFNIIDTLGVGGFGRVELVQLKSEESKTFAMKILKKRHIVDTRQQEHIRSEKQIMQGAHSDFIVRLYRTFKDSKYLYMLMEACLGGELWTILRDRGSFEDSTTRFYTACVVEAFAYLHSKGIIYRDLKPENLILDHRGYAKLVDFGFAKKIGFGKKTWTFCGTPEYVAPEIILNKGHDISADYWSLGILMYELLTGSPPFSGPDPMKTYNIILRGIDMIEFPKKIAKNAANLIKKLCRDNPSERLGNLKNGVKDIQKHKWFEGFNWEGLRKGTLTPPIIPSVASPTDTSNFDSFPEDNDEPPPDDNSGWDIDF

[10] = target: T2, Muscarinic acetylcholine receptor M4 (Homo sapiens) (UniProt P08173); conditions: Compound concentration 10.0 uM
T2 sequence (whole entry): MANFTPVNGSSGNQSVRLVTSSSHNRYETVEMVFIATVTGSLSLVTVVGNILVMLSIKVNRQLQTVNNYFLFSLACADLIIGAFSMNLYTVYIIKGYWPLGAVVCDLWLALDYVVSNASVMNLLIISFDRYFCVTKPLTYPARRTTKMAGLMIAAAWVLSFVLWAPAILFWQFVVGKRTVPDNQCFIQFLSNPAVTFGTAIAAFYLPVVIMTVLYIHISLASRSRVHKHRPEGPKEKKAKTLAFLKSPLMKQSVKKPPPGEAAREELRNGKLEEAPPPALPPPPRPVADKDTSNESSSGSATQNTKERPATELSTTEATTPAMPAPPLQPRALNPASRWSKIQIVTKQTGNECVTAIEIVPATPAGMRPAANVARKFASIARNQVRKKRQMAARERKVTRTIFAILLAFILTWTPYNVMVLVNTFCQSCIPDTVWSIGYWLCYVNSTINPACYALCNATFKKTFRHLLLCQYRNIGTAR

[11] = target: Serine/threonine-protein kinase D3 (Homo sapiens) (UniProt O94806); test: Inhibition of PKD3(h) at 10.0 µM in the Eurofins Kinase panel; conditions: Compound concentration 10.0 uM
Chain of Serine/threonine-protein kinase D3 (Homo sapiens) (O94806 whole entry): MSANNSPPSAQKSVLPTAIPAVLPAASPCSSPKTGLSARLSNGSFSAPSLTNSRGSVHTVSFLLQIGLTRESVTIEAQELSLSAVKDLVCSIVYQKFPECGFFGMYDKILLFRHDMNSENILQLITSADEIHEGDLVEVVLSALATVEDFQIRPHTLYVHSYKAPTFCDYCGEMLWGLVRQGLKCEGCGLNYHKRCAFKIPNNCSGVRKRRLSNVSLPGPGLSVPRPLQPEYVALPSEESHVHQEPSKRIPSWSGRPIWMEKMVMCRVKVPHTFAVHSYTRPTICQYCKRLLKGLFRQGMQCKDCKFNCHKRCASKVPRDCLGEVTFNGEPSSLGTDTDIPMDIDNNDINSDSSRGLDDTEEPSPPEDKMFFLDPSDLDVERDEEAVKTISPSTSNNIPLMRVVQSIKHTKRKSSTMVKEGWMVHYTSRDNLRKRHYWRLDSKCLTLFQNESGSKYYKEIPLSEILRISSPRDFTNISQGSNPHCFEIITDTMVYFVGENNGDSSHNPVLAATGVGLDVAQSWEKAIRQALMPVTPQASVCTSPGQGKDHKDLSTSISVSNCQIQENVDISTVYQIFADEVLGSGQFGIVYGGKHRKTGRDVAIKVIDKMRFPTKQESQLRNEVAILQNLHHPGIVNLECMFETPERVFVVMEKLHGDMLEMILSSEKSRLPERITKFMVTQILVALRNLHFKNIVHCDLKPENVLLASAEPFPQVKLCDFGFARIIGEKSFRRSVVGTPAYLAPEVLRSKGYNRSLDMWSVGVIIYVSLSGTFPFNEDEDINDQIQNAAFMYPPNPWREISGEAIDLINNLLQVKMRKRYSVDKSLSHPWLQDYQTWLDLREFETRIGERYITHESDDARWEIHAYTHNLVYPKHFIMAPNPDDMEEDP

[12] = target: Tyrosine-protein kinase JAK1 (Homo sapiens) (UniProt P23458); test: Inhibition of JAK1(h) at 10.0 µM in the Eurofins Kinase panel; conditions: Compound concentration 10.0 uM
[13] = target: Histamine H4 receptor (Homo sapiens) (UniProt Q9H3N8); conditions: Compound concentration 10.0 uM
Chain of Histamine H4 receptor (Homo sapiens) (Q9H3N8 whole entry): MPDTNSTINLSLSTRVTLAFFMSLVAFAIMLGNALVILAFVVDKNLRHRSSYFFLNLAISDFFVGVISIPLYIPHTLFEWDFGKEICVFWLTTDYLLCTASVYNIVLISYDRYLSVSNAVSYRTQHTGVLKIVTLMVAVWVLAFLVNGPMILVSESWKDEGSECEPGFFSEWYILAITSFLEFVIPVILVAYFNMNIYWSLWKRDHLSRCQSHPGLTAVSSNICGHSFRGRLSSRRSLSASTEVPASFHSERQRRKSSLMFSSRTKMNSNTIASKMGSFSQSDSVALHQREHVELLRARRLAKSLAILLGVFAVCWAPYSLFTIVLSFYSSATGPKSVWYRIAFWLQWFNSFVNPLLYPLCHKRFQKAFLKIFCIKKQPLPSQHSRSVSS

[14] = target: Insulin receptor-related protein (Homo sapiens) (UniProt P14616); test: Inhibition of IRR(h) at 10.0 µM in the Eurofins Kinase panel; conditions: Compound concentration 10.0 uM
[15] = target: T1, cGMP-dependent protein kinase 1 (Homo sapiens); test: Inhibition of PKG1beta(h) at 10.0 µM in the Eurofins Kinase panel; conditions: Compound concentration 10.0 uM
[16] = target: Activin receptor type-1 (Homo sapiens) (UniProt Q04771); test: Inhibition of ALK2(h) at 10.0 µM in the Eurofins Kinase panel; conditions: Compound concentration 10.0 uM
Chain of Activin receptor type-1 (Homo sapiens) (Q04771 whole entry): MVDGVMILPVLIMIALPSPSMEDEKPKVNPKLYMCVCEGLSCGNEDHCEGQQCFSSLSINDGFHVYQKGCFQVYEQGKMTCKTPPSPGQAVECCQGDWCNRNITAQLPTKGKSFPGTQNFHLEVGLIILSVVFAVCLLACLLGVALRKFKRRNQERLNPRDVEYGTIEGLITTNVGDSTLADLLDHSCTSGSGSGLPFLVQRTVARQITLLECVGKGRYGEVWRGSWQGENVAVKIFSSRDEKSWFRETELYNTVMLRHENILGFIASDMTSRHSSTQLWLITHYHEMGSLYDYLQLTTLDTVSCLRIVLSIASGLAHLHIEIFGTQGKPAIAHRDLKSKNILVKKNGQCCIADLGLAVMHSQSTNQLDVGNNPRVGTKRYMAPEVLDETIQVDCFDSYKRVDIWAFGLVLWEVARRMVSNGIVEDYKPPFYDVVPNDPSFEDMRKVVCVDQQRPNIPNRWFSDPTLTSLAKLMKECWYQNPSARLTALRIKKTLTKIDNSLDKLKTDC

[17] = target: T3, Vasopressin V1b receptor (Homo sapiens) (UniProt P47901); test: Inhibition of Vasopressin V1B at 10 µM in the Eurofins-Panlabs radioligand binding assay (Eurofins_assay_287560); set-up: ligand concentration 1 nM
T3 sequence (whole entry): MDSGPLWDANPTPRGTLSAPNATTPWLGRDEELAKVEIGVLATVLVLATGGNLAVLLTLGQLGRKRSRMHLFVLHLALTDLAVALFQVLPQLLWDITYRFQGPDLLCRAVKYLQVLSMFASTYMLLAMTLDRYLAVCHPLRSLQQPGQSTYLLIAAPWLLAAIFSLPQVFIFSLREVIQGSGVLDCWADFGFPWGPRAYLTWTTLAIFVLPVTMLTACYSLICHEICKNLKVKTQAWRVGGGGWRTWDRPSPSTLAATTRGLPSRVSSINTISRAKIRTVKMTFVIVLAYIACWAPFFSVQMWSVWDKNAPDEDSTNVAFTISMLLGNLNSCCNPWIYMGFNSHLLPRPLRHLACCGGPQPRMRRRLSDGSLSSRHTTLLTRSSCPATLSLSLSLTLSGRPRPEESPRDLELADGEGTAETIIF

Chain of Serine/threonine-protein kinase PAK 6 (Homo sapiens) (Q9NQU5 whole entry, looked up): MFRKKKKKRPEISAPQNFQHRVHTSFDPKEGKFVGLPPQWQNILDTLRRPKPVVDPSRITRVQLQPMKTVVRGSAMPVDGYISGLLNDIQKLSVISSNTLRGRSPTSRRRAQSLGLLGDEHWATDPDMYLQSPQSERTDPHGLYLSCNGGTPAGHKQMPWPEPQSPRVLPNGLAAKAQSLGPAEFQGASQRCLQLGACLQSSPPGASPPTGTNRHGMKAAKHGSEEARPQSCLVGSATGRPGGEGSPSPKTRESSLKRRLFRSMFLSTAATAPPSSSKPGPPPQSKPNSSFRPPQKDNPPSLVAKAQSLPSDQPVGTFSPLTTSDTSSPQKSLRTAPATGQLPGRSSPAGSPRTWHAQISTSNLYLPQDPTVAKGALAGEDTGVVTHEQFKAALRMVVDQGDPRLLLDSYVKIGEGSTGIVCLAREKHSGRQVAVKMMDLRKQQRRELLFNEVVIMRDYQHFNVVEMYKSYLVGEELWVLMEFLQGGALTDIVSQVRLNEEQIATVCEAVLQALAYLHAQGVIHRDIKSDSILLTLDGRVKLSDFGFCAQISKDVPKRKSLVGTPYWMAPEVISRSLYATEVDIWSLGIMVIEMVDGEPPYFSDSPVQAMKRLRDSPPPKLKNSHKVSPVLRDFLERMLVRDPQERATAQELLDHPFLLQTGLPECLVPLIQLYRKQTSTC

Compound	inhibition [1] [%]	inhibition [2] [%]	inhibition [3] [%]	inhibition [4] [%]	inhibition [5] [%]	inhibition [6] [%]	inhibition [7] [%]	inhibition [8] [%]	inhibition [9] [%]	inhibition [10] [%]	inhibition [11] [%]	inhibition [12] [%]	inhibition [13] [%]	inhibition [14] [%]	inhibition [15] [%]	inhibition [16] [%]	inhibition ([17]; Compound concentration 10.0 uM) [%]	also measured
O=c1n(Cc2cncn2-c2cccc(Cl)c2)nc(-c2ccc(Cl)cc2)n1C[C@H](O)C(F)(F)F	-5.8	-5.87	-1.52	3.02	-1.92	2.9	15.4	0.43	-0.21	0	1.68	8.74	0.51	-9.92	-1.12	-2.29	7	
C[C@H](O)c1nc(Cn2nc(-c3ccc(Cl)cc3)n(C[C@H](O)C(F)(F)F)c2=O)nn1-c1cccc(Cl)c1 [PECAVAPTAN]	-4.81	0.32	-0.06	5.79	1.99	-2.02	15.8	4.18	-5.35	7	-0.82	-1.72	-1.47	0.47	1.79	-2.51	43	inhibition ([17]; Compound concentration 0.001 uM): 6%; inhibition ([17]; Compound concentration 0.01 uM): -6%; inhibition ([17]; Compound concentration 0.1 uM): -5%; inhibition ([17]; Compound concentration 1.0 uM): 5%
